{"source": "paper PMC7587597", "about": "“Synthesis and Biological Evaluation of 1,3-Dideazapurine-Like 7-Amino-5-Hydroxymethyl-Benzimidazole Ribonucleoside Analogues as Aminoacyl-tRNA Synthetase Inhibitors” (Molecules, 2020)", "key": {"IleRS": {"biological_target": "T1, IleRS (Escherichia coli, UniProt P00956)", "T1 construct": "gene ileS", "T1 sequence (P00956 2-938)": "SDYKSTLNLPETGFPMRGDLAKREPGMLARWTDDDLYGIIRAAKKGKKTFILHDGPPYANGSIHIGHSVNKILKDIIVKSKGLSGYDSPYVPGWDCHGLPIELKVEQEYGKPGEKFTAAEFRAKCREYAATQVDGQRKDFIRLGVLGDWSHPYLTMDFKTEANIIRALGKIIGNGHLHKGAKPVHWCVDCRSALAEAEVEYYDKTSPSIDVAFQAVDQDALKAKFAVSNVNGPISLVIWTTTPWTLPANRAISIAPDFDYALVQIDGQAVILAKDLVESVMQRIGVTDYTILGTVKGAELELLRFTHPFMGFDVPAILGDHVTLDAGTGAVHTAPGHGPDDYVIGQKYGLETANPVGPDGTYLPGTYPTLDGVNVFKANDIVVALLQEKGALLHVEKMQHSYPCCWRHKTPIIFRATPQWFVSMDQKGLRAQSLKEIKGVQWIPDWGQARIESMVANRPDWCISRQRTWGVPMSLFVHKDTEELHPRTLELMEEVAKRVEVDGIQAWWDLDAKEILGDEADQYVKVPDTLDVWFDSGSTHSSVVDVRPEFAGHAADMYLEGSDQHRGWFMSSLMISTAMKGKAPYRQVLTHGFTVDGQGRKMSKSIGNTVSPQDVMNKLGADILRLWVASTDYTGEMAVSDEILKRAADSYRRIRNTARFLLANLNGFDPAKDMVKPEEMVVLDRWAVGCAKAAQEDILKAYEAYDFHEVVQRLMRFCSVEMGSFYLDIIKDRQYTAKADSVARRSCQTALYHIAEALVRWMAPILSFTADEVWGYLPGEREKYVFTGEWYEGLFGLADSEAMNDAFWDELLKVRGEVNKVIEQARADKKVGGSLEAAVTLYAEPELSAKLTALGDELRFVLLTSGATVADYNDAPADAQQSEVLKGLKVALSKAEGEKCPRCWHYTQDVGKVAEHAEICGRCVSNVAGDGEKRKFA", "experiment": "radiolabel aminoacyl transfer assay with purified enzyme (Kiapp)", "type": "biochemical"}, "TyrRS": {"biological_target": "T2, TyrRS (Escherichia coli, UniProt P0AGJ9)", "T2 construct": "gene tyrS", "T2 sequence (P0AGJ9 2-424)": "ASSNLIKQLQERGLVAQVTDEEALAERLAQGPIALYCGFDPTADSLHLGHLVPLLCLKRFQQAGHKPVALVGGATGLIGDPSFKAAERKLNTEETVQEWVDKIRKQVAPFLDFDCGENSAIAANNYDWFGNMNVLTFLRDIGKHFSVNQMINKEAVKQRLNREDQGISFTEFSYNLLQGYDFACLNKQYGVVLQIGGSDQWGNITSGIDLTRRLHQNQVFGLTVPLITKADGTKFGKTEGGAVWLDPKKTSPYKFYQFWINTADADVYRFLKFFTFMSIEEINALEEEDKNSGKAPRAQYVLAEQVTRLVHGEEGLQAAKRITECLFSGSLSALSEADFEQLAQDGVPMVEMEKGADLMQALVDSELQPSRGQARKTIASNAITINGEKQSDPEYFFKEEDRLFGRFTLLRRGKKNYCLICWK", "experiment": "([…] Å); radiolabel aminoacylation inhibition (Kiapp)", "type": "biochemical"}, "LeuRS [1]": {"biological_target": "T3, LeuRS (Escherichia coli, UniProt P07813)", "T3 construct": "gene leuS", "T3 sequence (P07813 whole entry)": "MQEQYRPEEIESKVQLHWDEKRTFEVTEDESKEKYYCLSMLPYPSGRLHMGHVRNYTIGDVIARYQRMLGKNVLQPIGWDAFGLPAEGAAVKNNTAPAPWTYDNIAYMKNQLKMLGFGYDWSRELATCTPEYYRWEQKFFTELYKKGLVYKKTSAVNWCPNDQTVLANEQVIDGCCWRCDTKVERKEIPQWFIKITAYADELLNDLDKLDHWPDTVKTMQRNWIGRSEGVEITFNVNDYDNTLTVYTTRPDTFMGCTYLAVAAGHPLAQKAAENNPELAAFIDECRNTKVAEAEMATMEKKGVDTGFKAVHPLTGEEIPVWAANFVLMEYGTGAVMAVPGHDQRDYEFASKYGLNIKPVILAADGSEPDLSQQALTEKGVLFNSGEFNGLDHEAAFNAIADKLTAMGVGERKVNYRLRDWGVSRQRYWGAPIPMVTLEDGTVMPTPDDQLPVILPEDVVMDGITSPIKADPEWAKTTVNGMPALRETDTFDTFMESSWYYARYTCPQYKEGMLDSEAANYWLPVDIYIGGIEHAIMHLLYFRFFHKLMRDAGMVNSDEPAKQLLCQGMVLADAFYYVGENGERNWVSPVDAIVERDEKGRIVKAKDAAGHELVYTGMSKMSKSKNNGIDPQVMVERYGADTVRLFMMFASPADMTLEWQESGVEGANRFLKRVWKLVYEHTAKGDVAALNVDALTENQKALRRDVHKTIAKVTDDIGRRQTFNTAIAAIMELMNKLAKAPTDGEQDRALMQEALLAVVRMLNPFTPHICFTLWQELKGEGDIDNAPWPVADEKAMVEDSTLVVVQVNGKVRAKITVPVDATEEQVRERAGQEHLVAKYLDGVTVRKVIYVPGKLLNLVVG", "experiment": "radiolabel aminoacyl transfer assay with purified enzyme (Kiapp)", "type": "biochemical"}, "LeuRS [2]": {"biological_target": "T4, LeuRS (Neisseria gonorrhoeae, UniProt B4RNT1)", "T4 construct": "gene leuS", "T4 sequence (B4RNT1 whole entry)": "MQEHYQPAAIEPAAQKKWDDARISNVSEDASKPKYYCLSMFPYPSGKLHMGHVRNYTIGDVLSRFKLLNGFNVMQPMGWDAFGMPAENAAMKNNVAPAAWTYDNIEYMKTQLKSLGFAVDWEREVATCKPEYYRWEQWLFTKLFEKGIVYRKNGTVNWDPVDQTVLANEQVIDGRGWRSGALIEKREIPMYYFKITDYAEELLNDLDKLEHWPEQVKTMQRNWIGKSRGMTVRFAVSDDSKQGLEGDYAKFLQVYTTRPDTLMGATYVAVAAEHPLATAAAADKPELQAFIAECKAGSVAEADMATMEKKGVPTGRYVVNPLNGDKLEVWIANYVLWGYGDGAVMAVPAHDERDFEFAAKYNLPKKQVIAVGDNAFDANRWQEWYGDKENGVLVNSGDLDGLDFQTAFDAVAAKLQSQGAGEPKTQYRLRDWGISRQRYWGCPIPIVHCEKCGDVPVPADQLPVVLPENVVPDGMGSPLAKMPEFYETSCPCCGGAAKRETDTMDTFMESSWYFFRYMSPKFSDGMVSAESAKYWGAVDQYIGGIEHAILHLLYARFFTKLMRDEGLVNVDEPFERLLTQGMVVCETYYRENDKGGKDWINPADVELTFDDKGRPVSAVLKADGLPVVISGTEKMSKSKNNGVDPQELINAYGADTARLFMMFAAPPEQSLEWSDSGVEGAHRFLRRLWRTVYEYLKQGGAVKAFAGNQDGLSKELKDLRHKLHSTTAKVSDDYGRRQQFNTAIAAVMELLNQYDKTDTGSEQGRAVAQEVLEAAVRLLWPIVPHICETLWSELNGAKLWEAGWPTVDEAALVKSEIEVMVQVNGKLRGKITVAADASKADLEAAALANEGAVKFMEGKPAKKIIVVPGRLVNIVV", "experiment": "X-ray crystal structure ([…] Å), soaked crystals", "type": "binding"}, "AspRS": {"biological_target": "T5, AspRS (Thermus thermophilus, UniProt Q5SKD2)", "T5 construct": "gene aspS1", "T5 sequence (Q5SKD2 whole entry)": "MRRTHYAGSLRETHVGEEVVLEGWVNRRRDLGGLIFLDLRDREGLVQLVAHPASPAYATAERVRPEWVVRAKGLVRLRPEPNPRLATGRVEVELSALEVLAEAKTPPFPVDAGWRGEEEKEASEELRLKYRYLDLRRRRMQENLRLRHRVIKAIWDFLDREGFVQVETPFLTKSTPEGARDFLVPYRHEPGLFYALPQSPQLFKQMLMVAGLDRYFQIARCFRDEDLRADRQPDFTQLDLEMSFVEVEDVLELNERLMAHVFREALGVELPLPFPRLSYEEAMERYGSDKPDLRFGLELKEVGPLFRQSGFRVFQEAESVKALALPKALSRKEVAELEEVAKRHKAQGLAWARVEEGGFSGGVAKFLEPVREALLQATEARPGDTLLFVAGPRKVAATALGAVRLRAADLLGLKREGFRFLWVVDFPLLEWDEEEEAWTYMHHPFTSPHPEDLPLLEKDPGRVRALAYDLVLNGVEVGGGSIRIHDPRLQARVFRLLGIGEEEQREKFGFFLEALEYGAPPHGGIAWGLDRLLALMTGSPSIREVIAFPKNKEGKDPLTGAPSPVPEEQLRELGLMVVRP", "experiment": "X-ray crystal structure ([…] Å), soaked crystals", "type": "binding"}, "SerRS [3]": {"biological_target": "T6, SerRS (Klebsiella pneumoniae, UniProt W9BNU9)", "T6 construct": "gene serS", "T6 sequence (W9BNU9 1-430)": "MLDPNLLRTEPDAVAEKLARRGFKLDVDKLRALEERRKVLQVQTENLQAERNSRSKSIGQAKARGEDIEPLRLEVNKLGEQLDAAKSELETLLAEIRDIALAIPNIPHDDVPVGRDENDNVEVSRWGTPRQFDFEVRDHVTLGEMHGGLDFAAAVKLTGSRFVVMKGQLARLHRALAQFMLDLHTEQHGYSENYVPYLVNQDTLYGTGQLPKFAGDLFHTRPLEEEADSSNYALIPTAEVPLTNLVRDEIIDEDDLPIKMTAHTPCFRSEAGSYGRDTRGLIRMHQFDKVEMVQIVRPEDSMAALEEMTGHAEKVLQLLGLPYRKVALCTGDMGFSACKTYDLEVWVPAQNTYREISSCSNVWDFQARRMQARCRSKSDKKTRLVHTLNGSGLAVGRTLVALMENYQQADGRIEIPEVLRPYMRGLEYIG", "experiment": "X-ray crystal structure ([…] Å), soaked crystals", "type": "binding"}, "SerRS [4]": {"biological_target": "T7, SerRS (Escherichia coli, UniProt P0A8L1)", "T7 construct": "gene serS", "T7 sequence (P0A8L1 whole entry)": "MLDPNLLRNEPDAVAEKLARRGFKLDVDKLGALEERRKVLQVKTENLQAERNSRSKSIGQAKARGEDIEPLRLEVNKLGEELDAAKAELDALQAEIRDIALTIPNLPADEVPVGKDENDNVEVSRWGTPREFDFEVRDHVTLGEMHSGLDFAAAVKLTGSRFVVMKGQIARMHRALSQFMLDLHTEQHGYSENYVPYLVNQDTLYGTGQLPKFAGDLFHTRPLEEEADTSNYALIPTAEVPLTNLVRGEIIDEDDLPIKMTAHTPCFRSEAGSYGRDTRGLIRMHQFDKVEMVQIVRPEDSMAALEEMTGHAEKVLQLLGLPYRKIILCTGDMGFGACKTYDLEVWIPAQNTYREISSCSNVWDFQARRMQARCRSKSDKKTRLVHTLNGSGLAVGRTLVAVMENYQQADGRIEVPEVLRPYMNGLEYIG", "experiment": "radiolabel aminoacyl transfer assay, % inhibition at […]", "type": "biochemical"}}, "data": [{"molecule": "CC[C@H](C)[C@H](N)C(=O)NS(=O)(=O)OC[C@H]1O[C@@H](n2cnc3cc(CO)cc(N)c32)[C@@H](O)[C@@H]1O", "note": "[32f, (2R,3S,4S,5R)-(5-(7-Amino-5-(Hydroxymethyl)-1H-Benzo[d]imidazol-1-yl)-3,4-Dihydroxytetrahydrofuran-2-yl)methyl Isoleucylsulfamate]", "values": [{"measurement": "Ki", "setting": "IleRS", "value": "0.0108 ± 0.0008", "unit": "µM"}]}, {"molecule": "Nc1cc(CO)cc2ncn([C@@H]3O[C@H](COS(=O)(=O)NC(=O)[C@@H](N)Cc4ccc(O)cc4)[C@@H](O)C3O)c12", "note": "(stereo in doubt) [32b, (2R,3S,4S,5R)-(5-(7-Amino-5-(Hydroxymethyl)-1H-Benzo[d]imidazol-1-yl)-3,4-Dihydroxytetrahydrofuran-2-yl)methyl Tyrosylsulfamate]", "values": [{"measurement": "Ki", "setting": "TyrRS", "value": "1.23 ± 0.239", "unit": "µM"}]}, {"molecule": "CC(C)C[C@H](N)C(=O)NS(=O)(=O)OC[C@H]1O[C@@H](n2cnc3cc(CO)cc(N)c32)C(O)[C@@H]1O", "note": "(stereo in doubt) [32e, (2R,3S,4S,5R)-(5-(7-Amino-5-(Hydroxymethyl)-1H-Benzo[d]imidazol-1-yl)-3,4-Dihydroxytetrahydrofuran-2-yl)methyl Leucylsulfamate]", "values": [{"measurement": "Ki", "setting": "LeuRS [1]", "value": "0.0215 ± 0.0012", "unit": "µM"}, {"measurement": "X-ray crystal structure (2.25 Å), soaked crystals", "setting": "LeuRS [2]", "value": "N. gonorrhoeae LeuRS in complex with LeuS7HMDDA"}]}, {"molecule": "Nc1cc(CO)cc2ncn([C@@H]3O[C@H](COS(=O)(=O)NC(=O)[C@@H](N)CC(=O)O)[C@@H](O)[C@H]3O)c12", "note": "[32d, 3-Amino-4-((((5-(7-Amino-5-(Hydroxymethyl)-1H-Benzo[d]imidazol-1-yl)-3,4-Dihydroxytetrahydrofuran-2-yl)methoxy)sulfonyl)amino)-4-Oxobutanoic Acid]", "values": [{"measurement": "X-ray crystal structure (2.15 Å), soaked crystals", "setting": "AspRS", "value": "T. thermophilus AspRS in complex with AspS7HMDDA"}]}, {"molecule": "Nc1cc(CO)cc2ncn([C@@H]3O[C@H](COS(=O)(=O)NC(=O)[C@@H](N)CO)[C@@H](O)C3O)c12", "note": "(stereo in doubt) [32c, (2R,3S,4S,5R)-(5-(7-Amino-5-(Hydroxymethyl)-1H-Benzo[d]imidazol-1-yl)-3,4-Dihydroxytetrahydrofuran-2-yl)methyl Serylsulfamate]", "values": [{"measurement": "X-ray crystal structure (2.18 Å), soaked crystals", "setting": "SerRS [3]", "value": "K. pneumoniae SerRS in complex with SerS7HMDDA"}, {"measurement": "inhibition at 200 µM", "setting": "SerRS [4]", "value": 54, "unit": "%"}]}]}
